Experimental data reported in ChEMBL document CHEMBL4219200, “Beta-sitosterol and its derivatives repress lipopolysaccharide/d-galactosamine-induced acute hepatic injury by inhibiting the oxidation and inflammation in mice” (Bioorg Med Chem Lett, 2018).
Calls of active or inactive are those of the source. No cut-off for these calls is given here.

What was measured:
[1] = system: L02; test: Cytotoxicity against human L02 cells up to 10 uM by MTT assay; assay type: cell-based
[2] = Solubility of the compound in water assessed as volume of solvent required to dissolve 1 g of compound; assay type: physicochemical; settings: buffer
[3] = system: Mus musculus; test: Hepatoprotective activity against lipopolysaccharide/D-galactosamine-induced acute hepatic injury in mouse assessed as increase in survival rate at 50 mg/kg up to 24 hrs; assay type: functional, organism-based
[4] = system: Mus musculus; test: Hepatoprotective activity against lipopolysaccharide/D-galactosamine-induced acute hepatic injury in mouse assessed as inhibition of LPS/GalN-induced increase in IL-1beta level in liver at 12.5 to 50 mg/kg; assay type: functional, organism-based
[5] = system: Mus musculus; test: Hepatoprotective activity against lipopolysaccharide/D-galactosamine-induced acute hepatic injury in mouse assessed as inhibition of LPS/GalN-induced decrease in SOD level in liver at 50 mg/kg; assay type: functional, organism-based
[6] = system: Mus musculus; test: Hepatoprotective activity against lipopolysaccharide/D-galactosamine-induced acute hepatic injury in mouse assessed as increase in Nrf2 protein level in liver at 50 mg/kg by Western blot analysis; assay type: functional, organism-based
[7] = system: Mus musculus; test: Hepatoprotective activity against lipopolysaccharide/D-galactosamine-induced acute hepatic injury in mouse assessed as restoration of hepatic lobular structure at 50 mg/kg up to 24 hrs by microscopic method; assay type: functional, organism-based
[8] = system: Mus musculus; test: Hepatoprotective activity against lipopolysaccharide/D-galactosamine-induced acute hepatic injury in mouse assessed as decrease in NF-kB protein level in liver at 12.5 to 50 mg/kg by Western blot analysis; assay type: functional, organism-based
[9] = system: Mus musculus; test: Hepatoprotective activity against lipopolysaccharide/D-galactosamine-induced acute hepatic injury in mouse assessed as inhibition of LPS/GalN-induced increase in MDA level in liver at 50 mg/kg; assay type: functional, organism-based
[10] = system: Mus musculus; test: Hepatoprotective activity against lipopolysaccharide/D-galactosamine-induced acute hepatic injury in mouse assessed as inhibition of Il-1beta mRNA level in liver at 12.5 to 50 mg/kg by RT-PCR analysis; assay type: functional, organism-based
[11] = system: Mus musculus; test: Hepatoprotective activity against lipopolysaccharide/D-galactosamine-induced acute hepatic injury in mouse assessed as inhibition of LPS/GalN-induced increase in TNFalpha level in serum at 12.5 to 50 mg/kg; assay type: functional, organism-based
[12] = system: Mus musculus; test: Hepatoprotective activity against lipopolysaccharide/D-galactosamine-induced acute hepatic injury in mouse assessed as increase in Nrf2 mRNA level in liver at 12.5 to 50 mg/kg by RT-PCR analysis; assay type: functional, organism-based
[13] = system: Mus musculus; test: Hepatoprotective activity against lipopolysaccharide/D-galactosamine-induced acute hepatic injury in mouse assessed as inhibition of TNFalpha mRNA level in liver at 12.5 to 50 mg/kg by RT-PCR analysis; assay type: functional, organism-based
[14] = system: Mus musculus; test: Hepatoprotective activity against lipopolysaccharide/D-galactosamine-induced acute hepatic injury in mouse assessed as decrease in TLR4 protein level in liver at 12.5 to 50 mg/kg by Western blot analysis; assay type: functional, organism-based
[15] = system: Mus musculus; test: Hepatoprotective activity against lipopolysaccharide/D-galactosamine-induced acute hepatic injury in mouse assessed as inhibition of LPS/GalN-induced decrease in GSH level in liver at 50 mg/kg; assay type: functional, organism-based
[16] = system: Mus musculus; test: Hepatoprotective activity against lipopolysaccharide/D-galactosamine-induced acute hepatic injury in mouse assessed as reduction in serum AST level at 50 mg/kg; assay type: functional, organism-based
[17] = system: Mus musculus; test: Hepatoprotective activity against lipopolysaccharide/D-galactosamine-induced acute hepatic injury in mouse assessed as increase in HO1 protein level in liver at 50 mg/kg by Western blot analysis; assay type: functional, organism-based
[18] = system: Mus musculus; test: Hepatoprotective activity against lipopolysaccharide/D-galactosamine-induced acute hepatic injury in mouse assessed as inhibition of LPS/GalN-induced decrease in CAT level in liver at 50 mg/kg; assay type: functional, organism-based
[19] = system: Mus musculus; test: Hepatoprotective activity against lipopolysaccharide/D-galactosamine-induced acute hepatic injury in mouse assessed as reduction in serum ALT level at 50 mg/kg; assay type: functional, organism-based
[20] = system: Mus musculus; test: Hepatoprotective activity against lipopolysaccharide/D-galactosamine-induced acute hepatic injury in mouse assessed as inhibition of NFkB mRNA level in liver at 12.5 to 50 mg/kg by RT-PCR analysis; assay type: functional, organism-based
[21] = system: Mus musculus; test: Hepatoprotective activity against lipopolysaccharide/D-galactosamine-induced acute hepatic injury in mouse assessed as inhibition of LPS/GalN-induced increase in IL-6 level in serum at 12.5 to 50 mg/kg; assay type: functional, organism-based
[22] = system: Mus musculus; test: Hepatoprotective activity against lipopolysaccharide/D-galactosamine-induced acute hepatic injury in mouse assessed as inhibition of LPS/GalN-induced increase in IL-6 level in liver at 12.5 to 50 mg/kg; assay type: functional, organism-based
[23] = system: Mus musculus; test: Hepatoprotective activity against lipopolysaccharide/D-galactosamine-induced acute hepatic injury in mouse assessed as inhibition of LPS/GalN-induced increase in IL-1beta level in serum at 12.5 to 50 mg/kg; assay type: functional, organism-based
[24] = system: Mus musculus; test: Hepatoprotective activity against lipopolysaccharide/D-galactosamine-induced acute hepatic injury in mouse assessed as inhibition of liver cell necrosis at 50 mg/kg up to 24 hrs by microscopic method; assay type: functional, organism-based
[25] = system: Mus musculus; test: Hepatoprotective activity against lipopolysaccharide/D-galactosamine-induced acute hepatic injury in mouse assessed as inhibition of LPS/GalN-induced increase in TNFalpha level in liver at 12.5 to 50 mg/kg; assay type: functional, organism-based
[26] = system: Mus musculus; test: Hepatoprotective activity against lipopolysaccharide/D-galactosamine-induced acute hepatic injury in mouse assessed as increase in IkB protein level in liver at 50 mg/kg by Western blot analysis; assay type: functional, organism-based

Structure (SMILES): CC[C@H](CC[C@@H](C)[C@H]1CC[C@H]2[C@@H]3CC=C4C[C@@H](OC(=O)c5ccccc5O)CC[C@]4(C)[C@H]3CC[C@]12C)C(C)C
- Activity [1]: Non-Toxic
- solubility [2]: 1000 to 10000 mL
- Activity [3]: Active

Structure (SMILES): CC[C@H](CC[C@@H](C)[C@H]1CC[C@H]2[C@@H]3CC=C4C[C@@H](OC(=O)c5ccco5)CC[C@]4(C)[C@H]3CC[C@]12C)C(C)C
- Activity [1]: Non-Toxic
- solubility [2]: 1000 to 10000 mL
- Activity [3]: Active

Structure (SMILES): C/C=C/C=C/C(=O)O[C@H]1CC[C@@]2(C)C(=CC[C@H]3[C@@H]4CC[C@H]([C@H](C)CC[C@@H](CC)C(C)C)[C@@]4(C)CC[C@@H]32)C1
- Activity [1]: Non-Toxic
- solubility [2]: 1000 to 10000 mL
- Activity [3]: Active

Structure (SMILES): CC[C@H](CC[C@@H](C)[C@H]1CC[C@H]2[C@@H]3CC=C4C[C@@H](OC(=O)c5ccc6ccccc6c5)CC[C@]4(C)[C@H]3CC[C@]12C)C(C)C
- inhibition [4]: Active
- inhibition [5]: Active
- Activity [6]: Active
- Activity [7]: Active
- Activity [8]: Active
- inhibition [9]: Active
- Activity [1]: Non-Toxic
- inhibition [10]: Active
- inhibition [11]: Active
- Activity [12]: Active
- inhibition [13]: Active
- Activity [14]: Active
- inhibition [15]: Active
- Activity [16]: Active
- Activity [17]: Active
- inhibition [18]: Active
- Activity [19]: Active
- inhibition [20]: Active
- solubility [2]: 1000 to 10000 mL
- inhibition [21]: Active
- inhibition [22]: Active
- inhibition [23]: Active
- inhibition [24]: Active
- inhibition [25]: Active
- Activity [26]: Active
- Activity [3]: Active

Structure (SMILES): CC[C@H](CC[C@@H](C)[C@H]1CC[C@H]2[C@@H]3CC=C4C[C@@H](O)CC[C@]4(C)[C@H]3CC[C@]12C)C(C)C [BETA-SITOSTEROL]
- solubility [2]: <= 10000 ml
- Activity [3]: Active
